Values of other authors, collected in patent US6197304A, “Whitening cosmetics containing solvent-fractionated extracts of ramulus mori extract” (priority 1997, dated 2001).
“Also recorded” adds a separate entry of the source.

Experiments:
[1] = tested on: tyrosinase; settings: prior art
[2] = tested on: skin; settings: prior art

SMILES	tyrosinase inhibition / whitening activity (in words) [1]	skin irritation (in words) [2]
O=c1cc(CO)occ1O [Comparative 3, kojic acid]	high activity; also recorded: relatively high whitening effect	–
O=C1O[C@H]([C@@H](O)CO)C(O)=C1O [Ascorbic acid, ascorbic acid]	relatively low activity of inhibiting tyrosinase	–
Oc1ccc(O)cc1 [Hydroquinone, hydroquinone]	–	irritates the skin strongly
